Laboratory results taken from patent publication US20050165029A1, “Pyrrolopyrimidine derivatives and analogs and their use in the treatment and prevention of diseases” (Ambit Biosciences Corporation, priority 2004, published 2005).

Key:
[1] = target: T1, ABL2 (Homo sapiens, UniProt P42684); experiment: ABL2 (DKIN) binding assay
T1 construct: made in house; host or cells: T7 bacteriophage display
From the text: (§1) Methods for measuring binding affinities for interactions between small molecules and kinases including FLT3, c-KIT, ABL(T334I) [a.k.a. ABL(T315I)], VEGFR-2 (a.k.a. KDR), and EGFR are described in detail in U.S. application Ser. No. 10/873,835, which is incorporated by reference herein in its entirety. The components of the assays include human kinases expressed as fusions to T7 bacteriophage particles and immobilized ligands that bind to the ATP site of the kinases. […] If the test compound binds the kinase it competes with the immobilized ligand and prevents binding to the solid support. […] The results are read out by quantitating the amount of fusion protein bound to the solid support, which is accomplished by either traditional phage plaque assays or by quantitative PCR (qPCR) using the phage genome as a template. […] The concentration of test molecule that reduces the number of phage bound to the solid support by 50% is equal to the Kd for the interaction between the kinase and the test molecule. Typically, data are collected for twelve concentrations of test compound and, the resultant binding curve is fit to a non-cooperative binding isotherm to calculate Kd.
(§2) Described in the exemplary assays below is data from binding with varying kinases. […] The term “ND” represents non-determined values.

[2] = target: T2, PLK 4 (Homo sapiens, UniProt O00444); experiment: PLK 4 (SKIN) Binding Assay
T2 construct: made in house; host or cells: T7 bacteriophage display
T2 sequence (O00444 1-970): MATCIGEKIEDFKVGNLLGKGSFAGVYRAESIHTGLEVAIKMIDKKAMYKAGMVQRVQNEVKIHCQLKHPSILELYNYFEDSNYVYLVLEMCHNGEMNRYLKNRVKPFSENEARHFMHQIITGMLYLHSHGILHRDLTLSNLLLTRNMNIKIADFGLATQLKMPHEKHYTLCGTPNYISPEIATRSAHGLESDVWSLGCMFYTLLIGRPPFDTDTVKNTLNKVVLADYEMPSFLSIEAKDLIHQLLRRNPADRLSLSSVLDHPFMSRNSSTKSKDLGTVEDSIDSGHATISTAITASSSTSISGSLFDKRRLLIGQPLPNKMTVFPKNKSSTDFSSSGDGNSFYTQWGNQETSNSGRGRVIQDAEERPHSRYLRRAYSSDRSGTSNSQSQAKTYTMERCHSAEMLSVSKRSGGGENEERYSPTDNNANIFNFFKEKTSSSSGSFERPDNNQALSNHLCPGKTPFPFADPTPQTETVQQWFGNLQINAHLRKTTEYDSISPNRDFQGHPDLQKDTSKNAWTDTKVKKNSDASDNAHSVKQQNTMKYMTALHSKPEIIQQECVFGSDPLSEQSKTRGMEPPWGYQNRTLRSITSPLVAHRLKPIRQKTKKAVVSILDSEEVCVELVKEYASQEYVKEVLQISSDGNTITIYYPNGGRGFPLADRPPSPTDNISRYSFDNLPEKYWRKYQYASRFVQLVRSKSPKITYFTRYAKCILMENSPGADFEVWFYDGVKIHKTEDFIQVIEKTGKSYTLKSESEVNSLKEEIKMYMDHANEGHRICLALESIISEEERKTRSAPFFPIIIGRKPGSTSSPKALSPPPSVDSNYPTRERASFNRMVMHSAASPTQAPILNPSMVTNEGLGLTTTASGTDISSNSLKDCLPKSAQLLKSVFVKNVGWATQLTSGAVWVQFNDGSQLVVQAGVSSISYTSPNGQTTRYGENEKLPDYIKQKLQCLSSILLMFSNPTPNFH
From the text: as §1, §2

[3] = target: T3, TNIK (Homo sapiens, UniProt Q9UKE5); experiment: TNIK (DKIN) Binding Assay
T3 construct: made in house; host or cells: T7 bacteriophage display
T3 sequence (Q9UKE5 whole entry): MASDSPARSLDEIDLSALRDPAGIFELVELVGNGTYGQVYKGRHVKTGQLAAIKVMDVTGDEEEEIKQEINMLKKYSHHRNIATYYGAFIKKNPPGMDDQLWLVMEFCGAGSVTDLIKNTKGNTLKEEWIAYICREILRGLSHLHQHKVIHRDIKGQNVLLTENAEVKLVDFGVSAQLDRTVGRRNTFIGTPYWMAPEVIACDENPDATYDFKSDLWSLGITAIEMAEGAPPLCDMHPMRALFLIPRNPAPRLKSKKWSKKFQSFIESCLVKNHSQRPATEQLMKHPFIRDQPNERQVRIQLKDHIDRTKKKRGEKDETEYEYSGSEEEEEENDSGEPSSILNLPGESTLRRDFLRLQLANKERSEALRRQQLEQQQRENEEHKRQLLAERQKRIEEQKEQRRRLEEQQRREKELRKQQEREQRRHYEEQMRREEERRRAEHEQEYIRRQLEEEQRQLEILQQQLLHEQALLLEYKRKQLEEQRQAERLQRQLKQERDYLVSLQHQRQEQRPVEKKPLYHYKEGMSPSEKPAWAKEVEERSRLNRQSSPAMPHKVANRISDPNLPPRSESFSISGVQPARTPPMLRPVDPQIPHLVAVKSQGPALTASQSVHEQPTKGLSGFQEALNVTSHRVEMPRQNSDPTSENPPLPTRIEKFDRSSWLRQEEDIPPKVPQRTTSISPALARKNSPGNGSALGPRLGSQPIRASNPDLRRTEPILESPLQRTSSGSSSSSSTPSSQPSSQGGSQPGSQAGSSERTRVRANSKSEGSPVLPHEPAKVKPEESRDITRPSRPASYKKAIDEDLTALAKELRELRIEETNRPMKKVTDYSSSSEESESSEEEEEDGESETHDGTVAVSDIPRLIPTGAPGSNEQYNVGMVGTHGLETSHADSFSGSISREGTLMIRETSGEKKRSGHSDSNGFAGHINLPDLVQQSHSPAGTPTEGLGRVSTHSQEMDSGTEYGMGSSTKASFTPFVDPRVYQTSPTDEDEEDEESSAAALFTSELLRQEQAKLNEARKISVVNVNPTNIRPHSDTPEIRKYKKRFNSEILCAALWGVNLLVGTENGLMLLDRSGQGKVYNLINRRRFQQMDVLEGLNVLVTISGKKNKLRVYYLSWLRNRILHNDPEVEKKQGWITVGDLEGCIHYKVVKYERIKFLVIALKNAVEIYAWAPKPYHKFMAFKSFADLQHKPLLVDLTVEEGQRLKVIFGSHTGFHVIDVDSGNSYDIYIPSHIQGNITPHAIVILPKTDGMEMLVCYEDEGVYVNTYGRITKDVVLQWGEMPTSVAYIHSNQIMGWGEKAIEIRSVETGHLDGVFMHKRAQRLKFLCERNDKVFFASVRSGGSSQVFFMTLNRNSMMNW
From the text: as §1, §2

[4] = target: T4, MARK2 (Homo sapiens, UniProt Q7KZI7); experiment: MARK2 (SKIN) Binding Assay
T4 construct: made in house; host or cells: T7 bacteriophage display
T4 sequence (Q7KZI7 whole entry): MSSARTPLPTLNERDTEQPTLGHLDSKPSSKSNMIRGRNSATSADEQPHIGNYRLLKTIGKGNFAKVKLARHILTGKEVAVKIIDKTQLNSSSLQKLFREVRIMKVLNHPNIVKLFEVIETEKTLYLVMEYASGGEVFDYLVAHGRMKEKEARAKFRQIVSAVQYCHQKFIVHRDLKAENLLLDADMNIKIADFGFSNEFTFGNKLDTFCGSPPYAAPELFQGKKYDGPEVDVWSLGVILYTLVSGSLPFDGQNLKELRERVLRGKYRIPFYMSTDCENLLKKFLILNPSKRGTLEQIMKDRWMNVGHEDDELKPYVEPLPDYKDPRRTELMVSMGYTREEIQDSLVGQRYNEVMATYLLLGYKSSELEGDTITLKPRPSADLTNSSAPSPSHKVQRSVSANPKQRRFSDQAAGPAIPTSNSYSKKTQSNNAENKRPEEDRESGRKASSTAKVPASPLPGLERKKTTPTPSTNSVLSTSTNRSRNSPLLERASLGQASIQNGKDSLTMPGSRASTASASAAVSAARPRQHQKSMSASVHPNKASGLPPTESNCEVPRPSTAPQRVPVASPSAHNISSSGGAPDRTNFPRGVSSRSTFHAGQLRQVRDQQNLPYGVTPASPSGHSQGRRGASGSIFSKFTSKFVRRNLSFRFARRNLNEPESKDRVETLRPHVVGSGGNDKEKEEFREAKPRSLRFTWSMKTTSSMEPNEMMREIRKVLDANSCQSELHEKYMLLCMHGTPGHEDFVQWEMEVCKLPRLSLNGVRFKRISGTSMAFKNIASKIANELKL
From the text: as §1, §2

T1 sequence (P42684 whole entry): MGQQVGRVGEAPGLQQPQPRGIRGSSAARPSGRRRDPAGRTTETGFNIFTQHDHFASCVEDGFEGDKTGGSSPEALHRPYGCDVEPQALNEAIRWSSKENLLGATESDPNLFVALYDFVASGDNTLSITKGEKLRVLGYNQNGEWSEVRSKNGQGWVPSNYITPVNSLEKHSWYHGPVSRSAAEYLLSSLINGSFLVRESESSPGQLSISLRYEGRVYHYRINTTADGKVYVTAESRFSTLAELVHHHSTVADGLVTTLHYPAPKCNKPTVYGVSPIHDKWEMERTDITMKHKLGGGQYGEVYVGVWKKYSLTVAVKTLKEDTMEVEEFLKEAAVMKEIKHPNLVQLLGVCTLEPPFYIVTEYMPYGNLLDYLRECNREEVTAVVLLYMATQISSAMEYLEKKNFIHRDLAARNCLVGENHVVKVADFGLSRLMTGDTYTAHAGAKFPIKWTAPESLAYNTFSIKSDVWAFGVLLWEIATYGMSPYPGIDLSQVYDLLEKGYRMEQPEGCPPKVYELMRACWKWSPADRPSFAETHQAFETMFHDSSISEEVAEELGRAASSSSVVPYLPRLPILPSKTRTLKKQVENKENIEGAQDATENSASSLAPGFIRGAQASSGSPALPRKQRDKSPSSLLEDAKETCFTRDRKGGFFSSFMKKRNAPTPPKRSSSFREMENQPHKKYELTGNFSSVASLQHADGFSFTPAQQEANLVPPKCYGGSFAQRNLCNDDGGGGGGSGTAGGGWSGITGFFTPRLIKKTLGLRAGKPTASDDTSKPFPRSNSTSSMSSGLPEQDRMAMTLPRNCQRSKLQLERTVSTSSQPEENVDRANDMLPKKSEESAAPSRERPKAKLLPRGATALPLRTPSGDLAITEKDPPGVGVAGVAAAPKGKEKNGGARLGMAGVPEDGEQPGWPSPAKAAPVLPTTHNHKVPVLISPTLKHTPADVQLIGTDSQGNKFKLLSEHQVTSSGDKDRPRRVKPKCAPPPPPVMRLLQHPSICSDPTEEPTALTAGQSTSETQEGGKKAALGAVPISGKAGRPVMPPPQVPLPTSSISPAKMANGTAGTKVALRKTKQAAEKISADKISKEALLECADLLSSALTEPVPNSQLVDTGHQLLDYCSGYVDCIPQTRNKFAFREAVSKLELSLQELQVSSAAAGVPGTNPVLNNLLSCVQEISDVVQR

Compound: Oc1ccc(-c2cc3c(Sc4cccc(Cl)c4)ncnc3[nH]2)cc1 [Compound L2]
- Kd [1]: 1 to 10 µM
- Kd [2]: > 10 µM
- Kd [3]: < 0.1 µM
- Kd [4]: > 10 µM
